Earlier results, collected in US4746734A, “Partially methylated cyclodextrins and process for producing the same” (Sanraku Incorporated, priority 1985, dated 1988).

Details: background statement

OC[C@H]1O[C@@H]2O[C@H]3[C@H](O)[C@@H](O)[C@@H](O[C@H]4[C@H](O)[C@@H](O)[C@@H](O[C@H]5[C@H](O)[C@@H](O)[C@@H](O[C@H]6[C@H](O)[C@@H](O)[C@@H](O[C@H]7[C@H](O)[C@@H](O)[C@@H](O[C@H]8[C@H](O)[C@@H](O)[C@@H](O[C@H]1[C@H](O)[C@H]2O)O[C@@H]8CO)O[C@@H]7CO)O[C@@H]6CO)O[C@@H]5CO)O[C@@H]4CO)O[C@@H]3CO [β-CD]
solubility in water (description of prior art): particularly low in water solubility
